Key:
[1] = target: Adenosine receptor A2a (Homo sapiens, UniProt P29274)
[2] = target: T1, Neuropeptide Y receptor type 1 (Homo sapiens, UniProt P25929)
T1 sequence (P25929 whole entry): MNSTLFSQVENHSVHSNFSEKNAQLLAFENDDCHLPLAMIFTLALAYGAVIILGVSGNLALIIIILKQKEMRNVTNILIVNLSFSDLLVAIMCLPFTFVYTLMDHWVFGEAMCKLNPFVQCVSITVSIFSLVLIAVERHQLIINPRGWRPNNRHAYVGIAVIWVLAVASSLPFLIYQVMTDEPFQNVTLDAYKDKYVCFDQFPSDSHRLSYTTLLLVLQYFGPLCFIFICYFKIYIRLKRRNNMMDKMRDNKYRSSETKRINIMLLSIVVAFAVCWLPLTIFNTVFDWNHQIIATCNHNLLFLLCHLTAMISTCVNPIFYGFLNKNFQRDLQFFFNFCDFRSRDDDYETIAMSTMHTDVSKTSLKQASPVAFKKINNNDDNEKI

[3] = target: Growth hormone secretagogue receptor type 1 (Homo sapiens, UniProt Q92847)
Growth hormone secretagogue receptor type 1, sequence (Q92847 whole entry): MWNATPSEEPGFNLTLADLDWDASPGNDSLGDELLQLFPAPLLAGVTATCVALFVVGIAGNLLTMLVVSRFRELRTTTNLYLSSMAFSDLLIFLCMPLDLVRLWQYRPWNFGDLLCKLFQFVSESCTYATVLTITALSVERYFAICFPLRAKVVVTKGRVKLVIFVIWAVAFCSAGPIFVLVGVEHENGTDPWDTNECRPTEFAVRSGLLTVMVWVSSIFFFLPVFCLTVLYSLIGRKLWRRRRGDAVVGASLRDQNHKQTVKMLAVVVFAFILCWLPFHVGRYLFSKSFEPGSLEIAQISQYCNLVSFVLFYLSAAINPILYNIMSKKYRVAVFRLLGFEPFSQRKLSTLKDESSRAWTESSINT

[4] = target: D(1A) dopamine receptor (Homo sapiens, UniProt P21728); assay type: functional, cell-based
D(1A) dopamine receptor, sequence (P21728 whole entry): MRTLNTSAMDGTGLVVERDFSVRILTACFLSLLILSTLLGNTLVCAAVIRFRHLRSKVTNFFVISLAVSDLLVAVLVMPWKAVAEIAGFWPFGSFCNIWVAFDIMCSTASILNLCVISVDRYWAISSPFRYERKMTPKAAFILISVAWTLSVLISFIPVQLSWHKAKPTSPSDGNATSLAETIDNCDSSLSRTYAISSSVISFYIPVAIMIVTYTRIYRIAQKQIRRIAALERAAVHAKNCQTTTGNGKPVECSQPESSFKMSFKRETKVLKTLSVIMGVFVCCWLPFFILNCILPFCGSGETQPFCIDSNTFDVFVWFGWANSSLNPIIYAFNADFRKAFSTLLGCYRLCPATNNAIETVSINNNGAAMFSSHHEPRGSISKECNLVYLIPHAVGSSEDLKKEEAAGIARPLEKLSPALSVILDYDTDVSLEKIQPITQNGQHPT

[5] = target: T2, Muscarinic acetylcholine receptor M2 (Homo sapiens, UniProt P08172); assay type: functional, cell-based
T2 sequence (P08172 whole entry): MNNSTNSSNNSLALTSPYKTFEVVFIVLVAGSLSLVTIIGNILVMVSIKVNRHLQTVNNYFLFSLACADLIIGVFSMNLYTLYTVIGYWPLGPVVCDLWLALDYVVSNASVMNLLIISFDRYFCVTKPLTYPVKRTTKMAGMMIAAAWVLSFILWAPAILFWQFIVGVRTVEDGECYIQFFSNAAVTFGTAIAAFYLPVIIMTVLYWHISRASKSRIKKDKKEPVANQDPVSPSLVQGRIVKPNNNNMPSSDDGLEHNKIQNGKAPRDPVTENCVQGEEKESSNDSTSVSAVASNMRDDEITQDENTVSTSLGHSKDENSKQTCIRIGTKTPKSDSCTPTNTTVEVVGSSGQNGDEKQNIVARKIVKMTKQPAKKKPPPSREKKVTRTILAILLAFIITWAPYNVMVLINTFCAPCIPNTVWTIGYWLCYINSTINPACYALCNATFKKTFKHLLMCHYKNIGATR

[6] = target: T3, Thromboxane A2 receptor (Homo sapiens, UniProt P21731)
T3 sequence (P21731 whole entry): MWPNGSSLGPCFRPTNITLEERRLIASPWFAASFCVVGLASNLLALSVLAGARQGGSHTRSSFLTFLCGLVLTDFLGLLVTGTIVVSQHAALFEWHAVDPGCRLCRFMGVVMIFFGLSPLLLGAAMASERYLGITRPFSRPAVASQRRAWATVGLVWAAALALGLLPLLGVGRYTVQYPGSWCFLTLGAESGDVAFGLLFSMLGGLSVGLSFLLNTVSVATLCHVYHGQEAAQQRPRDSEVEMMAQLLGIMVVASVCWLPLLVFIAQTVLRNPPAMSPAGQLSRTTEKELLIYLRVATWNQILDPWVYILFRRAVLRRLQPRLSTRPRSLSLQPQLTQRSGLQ

[7] = target: 5-hydroxytryptamine receptor 2A (Homo sapiens, UniProt P28223); assay type: functional, cell-based
5-hydroxytryptamine receptor 2A, sequence (P28223 whole entry): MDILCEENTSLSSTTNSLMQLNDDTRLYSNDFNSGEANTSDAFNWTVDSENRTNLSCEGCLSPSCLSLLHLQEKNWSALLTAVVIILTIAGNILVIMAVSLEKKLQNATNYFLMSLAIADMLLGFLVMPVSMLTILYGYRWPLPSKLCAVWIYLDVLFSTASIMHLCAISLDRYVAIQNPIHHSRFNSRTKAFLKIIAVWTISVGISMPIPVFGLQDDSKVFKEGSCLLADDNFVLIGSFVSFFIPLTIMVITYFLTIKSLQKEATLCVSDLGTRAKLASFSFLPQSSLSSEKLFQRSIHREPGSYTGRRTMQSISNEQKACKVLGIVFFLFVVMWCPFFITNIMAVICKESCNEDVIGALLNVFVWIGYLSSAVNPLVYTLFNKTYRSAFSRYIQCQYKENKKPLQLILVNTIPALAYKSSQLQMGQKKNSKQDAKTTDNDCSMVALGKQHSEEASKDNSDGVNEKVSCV

[8] = target: T2, Muscarinic acetylcholine receptor M2; assay type: functional, cell-based; remark: listed apart in the source
[9] = target: T4, Cholecystokinin receptor type A (Homo sapiens, UniProt P32238)
T4 sequence (P32238 whole entry): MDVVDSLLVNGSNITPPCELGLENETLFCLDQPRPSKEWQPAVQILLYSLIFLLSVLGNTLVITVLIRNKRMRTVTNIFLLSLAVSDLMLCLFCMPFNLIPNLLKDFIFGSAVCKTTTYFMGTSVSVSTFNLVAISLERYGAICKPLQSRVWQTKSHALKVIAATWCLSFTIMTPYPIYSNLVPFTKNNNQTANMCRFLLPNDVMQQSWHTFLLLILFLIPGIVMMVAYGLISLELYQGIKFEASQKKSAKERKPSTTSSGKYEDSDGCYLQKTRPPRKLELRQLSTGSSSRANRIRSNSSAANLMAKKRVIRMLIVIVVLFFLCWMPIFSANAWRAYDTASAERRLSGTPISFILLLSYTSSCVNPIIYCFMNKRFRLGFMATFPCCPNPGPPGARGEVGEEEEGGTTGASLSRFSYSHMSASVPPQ

[10] = target: Muscarinic acetylcholine receptor M3 (Homo sapiens, UniProt P20309)
Muscarinic acetylcholine receptor M3, sequence (P20309 whole entry): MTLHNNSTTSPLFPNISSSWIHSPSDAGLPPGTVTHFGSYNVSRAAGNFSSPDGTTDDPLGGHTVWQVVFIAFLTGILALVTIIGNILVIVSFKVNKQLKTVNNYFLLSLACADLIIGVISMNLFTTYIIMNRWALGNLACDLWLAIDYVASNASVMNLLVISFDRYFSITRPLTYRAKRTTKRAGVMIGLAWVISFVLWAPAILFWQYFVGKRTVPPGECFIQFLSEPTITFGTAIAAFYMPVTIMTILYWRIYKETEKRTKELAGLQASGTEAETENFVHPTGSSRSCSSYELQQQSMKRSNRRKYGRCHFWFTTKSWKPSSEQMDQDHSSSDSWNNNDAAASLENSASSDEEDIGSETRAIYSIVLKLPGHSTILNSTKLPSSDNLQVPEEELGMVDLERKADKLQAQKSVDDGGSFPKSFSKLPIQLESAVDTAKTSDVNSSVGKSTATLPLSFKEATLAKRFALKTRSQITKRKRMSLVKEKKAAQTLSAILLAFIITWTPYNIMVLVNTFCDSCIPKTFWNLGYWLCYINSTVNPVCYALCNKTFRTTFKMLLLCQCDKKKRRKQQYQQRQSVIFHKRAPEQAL

[11] = target: T5, Alpha-2A adrenergic receptor (Homo sapiens, UniProt P08913); assay type: functional, cell-based
T5 sequence (P08913 whole entry): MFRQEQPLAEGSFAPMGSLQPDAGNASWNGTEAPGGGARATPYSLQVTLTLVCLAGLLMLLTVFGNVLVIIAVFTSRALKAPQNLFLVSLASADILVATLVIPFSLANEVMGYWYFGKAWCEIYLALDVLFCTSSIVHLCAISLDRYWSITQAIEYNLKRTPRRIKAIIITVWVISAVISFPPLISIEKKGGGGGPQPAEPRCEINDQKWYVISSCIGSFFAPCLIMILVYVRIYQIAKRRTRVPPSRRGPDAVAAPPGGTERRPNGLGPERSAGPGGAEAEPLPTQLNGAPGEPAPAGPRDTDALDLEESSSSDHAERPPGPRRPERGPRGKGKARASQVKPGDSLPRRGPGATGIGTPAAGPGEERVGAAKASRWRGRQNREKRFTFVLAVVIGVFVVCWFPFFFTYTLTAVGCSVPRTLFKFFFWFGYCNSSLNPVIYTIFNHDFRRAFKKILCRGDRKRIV

[12] = target: T6, Alpha-2B adrenergic receptor (Homo sapiens, UniProt P18089)
T6 sequence (P18089 whole entry): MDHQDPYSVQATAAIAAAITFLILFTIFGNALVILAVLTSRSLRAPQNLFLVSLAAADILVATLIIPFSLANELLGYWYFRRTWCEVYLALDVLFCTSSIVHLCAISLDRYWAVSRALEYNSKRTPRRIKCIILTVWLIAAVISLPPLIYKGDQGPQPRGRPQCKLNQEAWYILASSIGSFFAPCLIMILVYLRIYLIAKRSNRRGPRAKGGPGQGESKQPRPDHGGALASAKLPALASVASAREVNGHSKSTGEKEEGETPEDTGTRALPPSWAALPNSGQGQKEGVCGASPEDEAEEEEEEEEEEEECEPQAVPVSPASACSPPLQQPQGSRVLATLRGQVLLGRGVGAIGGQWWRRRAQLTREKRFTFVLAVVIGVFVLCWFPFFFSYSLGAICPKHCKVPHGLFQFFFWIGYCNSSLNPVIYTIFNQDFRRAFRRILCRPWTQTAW
Note: assay procedure not described here.

Adenosine receptor A2a, sequence (P29274 whole entry): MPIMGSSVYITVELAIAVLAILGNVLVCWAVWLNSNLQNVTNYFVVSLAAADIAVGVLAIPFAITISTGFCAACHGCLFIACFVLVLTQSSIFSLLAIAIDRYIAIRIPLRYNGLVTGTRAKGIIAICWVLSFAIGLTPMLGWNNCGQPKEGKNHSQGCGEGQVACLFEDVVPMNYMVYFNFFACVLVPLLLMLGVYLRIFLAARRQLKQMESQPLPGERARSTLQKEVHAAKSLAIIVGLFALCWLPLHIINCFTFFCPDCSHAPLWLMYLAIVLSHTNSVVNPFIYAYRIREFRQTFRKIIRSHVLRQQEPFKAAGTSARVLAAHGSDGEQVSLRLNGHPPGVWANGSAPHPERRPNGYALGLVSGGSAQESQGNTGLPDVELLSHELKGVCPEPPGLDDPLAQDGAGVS

SMILES | AC50 [1] | AC50 [2] | AC50 [3] | AC50 [4] | AC50 [5] | AC50 [6] | AC50 [7] | AC50 [8] | AC50 [9] | AC50 [10] | AC50 [11] | AC50 [12]
CC(C)C(=O)OCC(=O)[C@@]12O[C@H](C3CCCCC3)O[C@@H]1C[C@H]1[C@@H]3CCC4=CC(=O)C=C[C@]4(C)[C@H]3[C@@H](O)C[C@@]12C [CICLESONIDE] | > 30 µM | > 10 µM | > 10 µM | > 10 µM | > 10 µM | > 10 µM | > 10 µM | > 10 µM | > 10 µM | > 30 µM | > 10 µM | > 10 µM
CCCC(CCC)C(=O)O[C@H]1C[C@H]2CC[C@@H](C1)[N+]2(C)C [ANISOTROPINE] | > 30 µM | > 30 µM | > 30 µM | > 30 µM | > 30 µM | > 30 µM | > 30 µM | 0.63 µM | > 30 µM | 0.036 µM | > 30 µM | > 30 µM
COc1ccc(C(=O)NCc2ccc(OCCN(C)C)cc2)cc1OC [ITOPRIDE] | > 30 µM | > 30 µM | > 30 µM | > 30 µM | > 30 µM | > 30 µM | > 30 µM | > 30 µM | > 30 µM | > 30 µM | > 30 µM | > 30 µM
CC(=O)OCC(=O)[C@@]12OC3(CCCC3)O[C@@H]1C[C@H]1[C@@H]3CCC4=CC(=O)C=C[C@]4(C)[C@@]3(F)[C@@H](O)C[C@@]12C [AMCINONIDE] | > 10 µM | > 10 µM | > 10 µM | > 10 µM | > 10 µM | > 10 µM | > 10 µM | > 10 µM | > 10 µM | > 30 µM | > 10 µM | > 10 µM
CCC1(C2=CCCCCC2)C(=O)NC(=O)NC1=O [HEPTABARBITAL] | > 10 µM | > 10 µM | > 10 µM | > 10 µM | > 10 µM | > 10 µM | > 10 µM | > 10 µM | > 10 µM | > 30 µM | > 10 µM | > 10 µM
C#CC1(OC(N)=O)CCCCC1 [ETHINAMATE] | > 10 µM | > 10 µM | > 10 µM | > 10 µM | > 10 µM | > 10 µM | > 10 µM | > 10 µM | > 10 µM | > 30 µM | > 10 µM | > 10 µM
CCCCOc1cc(C(=O)NCCN(CC)CC)c2ccccc2n1 [DIBUCAINE] | > 30 µM | > 30 µM | 15.8 µM | > 10 µM | > 10 µM | > 30 µM | > 10 µM | > 10 µM | > 30 µM | > 30 µM | > 10 µM | > 10 µM

Source: ChEMBL document CHEMBL5291721, “A preclinical secondary pharmacology resource illuminates target-adverse drug reaction associations of marketed drugs” (Nat Commun, 2023)
